From the Kinase Knowledgebase extract (Sharma et al. 2016)
pIC50: −log10 of the molar value.

Molecular target: PIK3CA (human) (UniProt P42336)
Assay: Assessment of PIK3CA Kinase Activity

Sequence of PIK3CA (human) (P42336 whole entry, looked up): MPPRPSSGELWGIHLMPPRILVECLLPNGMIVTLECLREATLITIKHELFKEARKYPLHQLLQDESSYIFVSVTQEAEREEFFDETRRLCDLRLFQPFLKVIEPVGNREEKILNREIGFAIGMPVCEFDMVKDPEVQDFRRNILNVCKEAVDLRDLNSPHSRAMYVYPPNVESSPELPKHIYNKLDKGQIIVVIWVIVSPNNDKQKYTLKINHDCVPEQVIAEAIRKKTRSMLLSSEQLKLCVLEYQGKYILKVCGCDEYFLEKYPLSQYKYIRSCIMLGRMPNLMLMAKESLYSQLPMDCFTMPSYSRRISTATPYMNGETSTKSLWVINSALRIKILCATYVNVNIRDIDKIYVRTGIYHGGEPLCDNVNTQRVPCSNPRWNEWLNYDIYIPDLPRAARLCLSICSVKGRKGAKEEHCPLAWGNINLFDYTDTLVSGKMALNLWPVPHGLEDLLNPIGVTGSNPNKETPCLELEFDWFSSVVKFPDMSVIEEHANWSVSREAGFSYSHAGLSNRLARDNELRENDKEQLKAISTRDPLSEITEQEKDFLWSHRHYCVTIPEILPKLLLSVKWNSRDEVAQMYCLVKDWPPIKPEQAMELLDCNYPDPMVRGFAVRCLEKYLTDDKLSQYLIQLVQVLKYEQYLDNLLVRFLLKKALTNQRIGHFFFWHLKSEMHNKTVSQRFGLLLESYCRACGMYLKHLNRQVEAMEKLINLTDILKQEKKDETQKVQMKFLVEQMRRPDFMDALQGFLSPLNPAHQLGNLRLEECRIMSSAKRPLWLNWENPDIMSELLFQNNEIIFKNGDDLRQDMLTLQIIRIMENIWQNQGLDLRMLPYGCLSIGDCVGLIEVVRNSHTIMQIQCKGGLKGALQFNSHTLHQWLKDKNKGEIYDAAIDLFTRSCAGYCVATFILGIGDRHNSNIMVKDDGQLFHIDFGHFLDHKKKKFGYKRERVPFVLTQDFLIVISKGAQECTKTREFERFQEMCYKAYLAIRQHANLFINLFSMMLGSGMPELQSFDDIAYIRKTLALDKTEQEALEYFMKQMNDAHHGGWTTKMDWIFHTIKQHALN

Compound | pIC50
CC(C)n1ncnc1-c1nc2c(s1)CCOc1ccc(-c3ccc(S(C)(=O)=O)cc3)cc1-2 | > 6.00
CC1(C)C(=O)NC(=O)N1c1nc2c(s1)CCOc1cc(C3CCNCC3)ccc1-2 | > 6.00
Cn1cc(-c2ccc3c(n2)-c2sc(-c4ncnn4-c4ccc(F)cc4F)cc2CCO3)cn1 | > 6.00
CNC(=O)c1ccc2c(c1)OCCc1cc(C(=O)N(C)c3cc(C(=O)NC[C@@H](C)O)ccc3Cl)sc1-2 | > 6.00
O=C(c1nc2c(s1)CCOc1cc(-c3cn[nH]c3)ccc1-2)N1CCCN(c2ccccn2)CC1 | > 6.00
COc1ccccc1-c1ccc2c(c1)-c1nc(-c3ncnn3C(C)C)sc1CCO2 | > 6.00
Fc1ccc(-n2ncnc2-c2cc3c(s2)-c2nc(NCCc4ccccc4)ccc2OCC3)c(F)c1 | > 6.00
CC(C)n1ncnc1-c1nc2c(s1)CCOc1cc(C3CN(C(=O)C4(N)CC4)C3)ccc1-2 | > 6.00
OCCn1cc(-c2ccc3c(c2)OCCc2sc(-c4ncnn4CCN4CCOCC4)nc2-3)cn1 | > 6.00
COCCNCc1ccc2c(c1)OCCc1sc(-c3nncn3C(C)C)nc1-2 | > 6.00
CN1CCC(n2ncnc2-c2nc3c(s2)CCOc2cc(-c4cnn(CCO)c4)ccc2-3)CC1 | > 6.00
CN(C)C(=O)CNc1ccc2c(n1)-c1sc(-c3ncnn3-c3ccc(F)cc3F)cc1CCO2 | > 6.00
CN1C(=O)N(c2nc3c(s2)CCOc2cc(-c4cnn(CC(C)(C)O)c4)ccc2-3)C(C)(C)C1=O | > 6.00
O=C(c1nc2c(s1)CCOc1cc(-c3cn[nH]c3)ccc1-2)N(CCO)C1CCCCC1 | > 6.00
CC1(C)C(=O)N(CCN)C(=O)N1c1nc2c(s1)CCOc1ccccc1-2 | > 6.00
COC1CCN(C(=O)c2nc3c(s2)CCOc2cc(-c4cn[nH]c4)ccc2-3)CC1 | > 6.00
CC(C)n1ncnc1-c1nc2c(s1)CCOc1ccc(C#N)cc1-2 | > 6.00
CC(=O)N1CC2CC1CN2c1ccc2c(n1)-c1sc(-c3ncnn3-c3ccc(F)cc3F)cc1CCO2 (configuration not stated) | > 6.00
CNC(=O)c1ccc2c(c1)OCCc1cc(C(=O)N(C)c3cc(C(=O)N4CC(O)C4)ccc3Cl)sc1-2 | > 6.00
CC(C)n1ncnc1-c1nc2c(s1)CCOc1cc(-c3cc[nH]c(=O)c3)ccc1-2 | > 6.00
CC(C)n1ncnc1-c1nc2c(s1)CCOc1cc(C3CN(CC(=O)N4CCOCC4)C3)ccc1-2 | > 6.00
COCCNc1ccc2c(n1)-c1sc(-c3ncnn3-c3ccc(F)cc3F)cc1CCO2 | > 6.00
CC(C)n1ncnc1-c1nc2c(s1)CCOc1ccc(C3CN(Cc4ccc(F)cc4F)C3)cc1-2 | > 6.00

Compound | pIC50
CC(C)n1ncnc1-c1nc2c(s1)CCOc1cc(C3CN(CCS(=O)(=O)N4CC(F)(F)C4)C3)ccc1-2 | > 6.00
CC(C)n1ncnc1-c1nc2c(s1)CCOc1ccc(C3CN(C(=O)OC(C)(C)C)C3)cc1-2 | > 6.00
Cc1nc(-c2nc3c(s2)CCOc2cc(-c4cnn(C5CN(CC(C)(C)O)C5)c4)ccc2-3)n(C(C)C)n1 | > 6.00
N#C[C@@H]1CCCN1C(=O)c1nc2c(s1)CCOc1cc(-c3cn[nH]c3)ccc1-2 | > 6.00
CC(=O)N1CCC(N(CCO)C(=O)c2nc3c(s2)CCOc2cc(-c4cnn(CC(C)(C)O)c4)ccc2-3)CC1 | > 6.00
N#CCCN(C(=O)c1nc2c(s1)CCOc1cc(-c3cn[nH]c3)ccc1-2)C1CCCC1 | > 6.00
Fc1ccc(-n2ncnc2-c2cc3c(s2)-c2nc(NCCN4CCOCC4)ccc2OCC3)c(F)c1 | > 6.00
CC(=O)N1[C@H](C)CN(c2ccc3c(n2)-c2sc(-c4ncnn4-c4ccc(F)cc4F)cc2CCO3)C[C@@H]1C | > 6.00
CC(C)(CO)n1cc(-c2ccc3c(c2)OCCc2sc(-c4ncnn4CC(F)(F)F)nc2-3)cn1 | > 6.00
Cc1nc(-c2nc3c(s2)CCOc2cc(CNS(C)(=O)=O)ccc2-3)n(C(C)C)n1 | > 6.00
CC(C)n1ncnc1-c1cc2c(s1)-c1ccc(-c3cnn(CCO)c3)cc1OCC2 | > 6.00
CC(C)n1ncnc1-c1nc2c(s1)CCOc1ccc(C3CCN(C(=O)[C@@H](C)O)CC3)cc1-2 | > 6.00
CC(C)n1ncnc1-c1nc2c(s1)CCOc1cc(C3CCN(C(C)(C)C(N)=O)CC3)ccc1-2 | > 6.00
COCCNC(=O)c1ccc2c(c1)OCCc1sc(-c3ncnn3C(C)C)nc1-2 | > 6.00
CNC(=O)CN1CCC(c2ccc3c(c2)OCCc2sc(-c4ncnn4C(C)C)nc2-3)CC1 | > 6.00
CN(C(=O)c1cc2c(s1)-c1ccc(C(=O)NCCS(C)(=O)=O)cc1OCC2)c1cc(C(=O)N2CC(O)C2)ccc1Cl | > 6.00
CCOc1ncccc1-c1ccc2c(c1)-c1nc(-c3ncnn3C(C)C)sc1CCO2 | > 6.00
O=C(c1nc2c(s1)CCOc1cc(-c3cn[nH]c3)ccc1-2)N1CC[C@@H](N2CCOCC2)C1 | > 6.00
CC(C)n1ncnc1-c1nc2c(s1)CCOc1ccc(-c3cccn(C(C)C)c3=O)cc1-2 | > 6.00
OC1CCN(c2ccc3c(n2)-c2sc(-c4ncnn4-c4ccc(F)cc4F)cc2CCO3)CC1 | > 6.00
CC(C)(O)Cn1cc(-c2ccc3c(c2)OCCc2sc(N4C(=O)NC(=O)C4(C)C)nc2-3)cn1 | > 6.00
Nc1ccc(-c2ccc3c(n2)-c2sc(-c4ncnn4-c4ccc(F)cc4F)cc2CCO3)cn1 | > 6.00
O=C(c1nc2c(s1)CCOc1cc(-c3cn[nH]c3)ccc1-2)N1CCC(O)CC1 | > 6.00

Compound | pIC50
C[C@@H]1CN(c2ccc3c(n2)-c2sc(-c4ncnn4-c4ccc(F)cc4F)cc2CCO3)C[C@H](C)N1CCF | > 6.00
CC(C)n1ncnc1-c1nc2c(s1)CCOc1cc(C3CN(CC(F)(F)F)C3)ccc1-2 | > 6.00
CC(C)n1ncnc1-c1nc2c(s1)CCOc1cc(-c3ccc(=O)[nH]c3)ccc1-2 | > 6.00
Cc1nc(-c2nc3c(s2)CCOc2cc(C4CN(CCS(C)(=O)=O)C4)ccc2-3)n(C(C)C)n1 | > 6.00
Cc1nc(-c2nc3c(s2)CCOc2cc(C4CN(CC(=O)NC(C)C)C4)ccc2-3)n(C(C)C)n1 | > 6.00
O=C(c1nc2c(s1)CCOc1cc(-c3cn[nH]c3)ccc1-2)N1CCNCC1 | > 6.00
O=C1CN(c2ccc3c(n2)-c2sc(-c4ncnn4-c4ccc(F)cc4F)cc2CCO3)CCN1 | > 6.00
CC(C)n1ncnc1-c1nc2c(s1)CCOc1ccc(-c3cccn(CC(=O)O)c3=O)cc1-2 | > 6.00
CNC(=O)C(C)(C)N1CC(c2ccc3c(c2)OCCc2sc(-c4ncnn4C(C)C)nc2-3)C1 | > 6.00
CC(C)N(CCO)C(=O)c1nc2c(s1)CCOc1ccc(-c3cnn(CCO)c3)cc1-2 | > 6.00
O=C(c1nc2c(s1)CCOc1cc(-c3cn[nH]c3)ccc1-2)N1CC[C@@H](C(F)(F)F)C1 | > 6.00
CC(C)N(CCO)C(=O)c1nc2c(s1)CCOc1ccc(-c3cnc(N)nc3)cc1-2 | > 6.00
CC(C)n1ncnc1-c1nc2c(s1)CCOc1ccc(C3CN(CC(N)=O)C3)cc1-2 | > 6.00
O=C(c1nc2c(s1)CCOc1cc(-c3cn[nH]c3)ccc1-2)N1CCN(c2cccnc2)CC1 | > 6.00
O=C(c1nc2c(s1)CCOc1cc(-c3cn[nH]c3)ccc1-2)N1CCCN(c2ccncc2)CC1 | > 6.00
O=C(c1nc2c(s1)CCOc1cc(-c3cn[nH]c3)ccc1-2)N1CCN(CC2CC2)CC1 | > 6.00
CN1CCC(CNc2ccc3c(n2)-c2sc(-c4ncnn4-c4ccc(F)cc4F)cc2CCO3)C1 (configuration not stated) | > 6.00
CC(=O)N1CC(N(C(C)=O)c2ccc3c(n2)-c2sc(-c4ncnn4-c4ccc(F)cc4F)cc2CCO3)C1 | > 6.00
CN(C)CCN(C(=O)c1nc2c(s1)CCOc1cc(-c3cnn(CC(C)(C)O)c3)ccc1-2)C1CCCCC1 | > 6.00
Cc1cc(-c2ccc3c(n2)-c2sc(-c4ncnn4-c4ccc(F)cc4F)cc2CCO3)cnc1N1CCOCC1 | > 6.00
CC(C)(O)Cn1cc(-c2ccc3c(c2)OCCc2sc(C(=O)N(CCO)C4CCOCC4)nc2-3)cn1 | > 6.00
Fc1ccc(-n2ncnc2-c2cc3c(s2)-c2nc(N4CCCNCC4)ccc2OCC3)c(F)c1 | > 6.00
OCCn1cc(-c2ccc3c(c2)OCCc2sc(-c4ncnn4CC(F)(F)F)nc2-3)cn1 | > 6.00

Compound | pIC50
CN(C[C@H]1Cc2ccccc2O1)C(=O)c1nc2c(s1)CCOc1cc(-c3cn[nH]c3)ccc1-2 | > 6.00
CC(C)(O)Cn1cc(-c2ccc3c(c2)OCCc2sc(N4C(=O)NCC4(C)C)nc2-3)cn1 | > 6.00
CC(C)n1ncnc1-c1nc2c(s1)CCOc1cc(-c3cccnc3F)ccc1-2 | > 6.00
CC1(C)CCCN(C(=O)c2nc3c(s2)CCOc2cc(-c4cn[nH]c4)ccc2-3)C1 | > 6.00
CC(C)n1ncnc1-c1nc2c(s1)CCOc1ccc(-c3cccnc3C(F)(F)F)cc1-2 | > 6.00
OCCNc1ccc(-c2ccc3c(n2)-c2sc(-c4ncnn4-c4ccc(F)cc4F)cc2CCO3)cn1 | > 6.00
CC(CO)Nc1ccc2c(n1)-c1sc(-c3ncnn3-c3ccc(F)cc3F)cc1CCO2 (configuration not stated) | > 6.00
CN1CC(C)(C)N(c2nc3c(s2)CCOc2cc(-c4cnn(CC(C)(C)O)c4)ccc2-3)C1=O | > 6.00
Cc1nc(-c2nc3c(s2)CCOc2cc(C4COC4)ccc2-3)n(C(C)C)n1 | > 6.00
Cc1ccncc1-c1ccc2c(c1)-c1nc(-c3ncnn3C(C)C)sc1CCO2 | > 6.00
CN1CCN(CCNc2ccc3c(n2)-c2sc(-c4ncnn4-c4ccc(F)cc4F)cc2CCO3)CC1 | > 6.00
CC(C)(C(=O)NCCO)n1cc(-c2ccc3c(c2)OCCc2sc(-c4ncnn4CC(F)(F)F)nc2-3)cn1 | > 6.00
CC(C)(O)Cn1cc(-c2ccc3c(c2)OCCc2sc(N4C(=O)OCC4(C)C)nc2-3)cn1 | > 6.00
CN(CCO)C(=O)c1nc2c(s1)CCOc1cc(-c3cn[nH]c3)ccc1-2 | > 6.00
CC(O)CNc1ccc2c(n1)-c1sc(-c3ncnn3-c3ccc(F)cc3F)cc1CCO2 (configuration not stated) | > 6.00
CC(=O)N1CC(n2ccnc2-c2nc3c(s2)CCOc2cc(-c4cnn(CC(C)(C)O)c4)ccc2-3)C1 | > 6.00
CC(C)(O)Cn1cc(-c2ccc3c(c2)OCCc2sc(-c4ncnn4CCN4CCOCC4)nc2-3)cn1 | > 6.00
CC(C)n1ncnc1-c1nc2c(s1)CCOc1ccc(/C=C/S(C)(=O)=O)cc1-2 | > 6.00
Cc1ncccc1-c1ccc2c(n1)-c1sc(-c3nccn3C(C)C)cc1CCO2 | > 6.00
CC(C)n1ncnc1-c1nc2c(s1)CCOc1ccc(C(=O)NCCO)cc1-2 | > 6.00
CC(C)n1nc(N)nc1-c1nc2c(s1)CCOc1cc(-c3cnn(CC4(C)COC4)c3)ccc1-2 | > 6.00
C[C@H](O)C(=O)N1CC(Nc2ccc3c(n2)-c2sc(-c4ncnn4-c4ccc(F)cc4F)cc2CCO3)C1 | > 6.00
Cc1nc(-c2nc3c(s2)CCOc2cc(CN)ccc2-3)n(C(C)C)n1 | > 6.00
